# In PubChem BioAssay AID1963986 (Molecular Pharmacology Branch, DTP, NCI, 2024):
# System: 171881-019-R-J1-PDC tumor spheroid viability
# Assay: Anticancer human tumor 171881-019-R-J1-PDC patient-derived invasive breast carcinoma cell line growth inhibition [PI3K]
# Conditions: spheroids with HUVEC and MSC; for IC50: curve of first compound; for viability, T/C: stronger effect = lower value
# Summary of the method: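 Viability of mixed-cell spheroids was determined after exposure to pairwise combinations, one partner being inavolisib, alpelisib, duvelisib or copanlisib. Highest tested concentration matched clinical Cmax where known and 10 microM where not, descending in half-log steps.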
# [1] = second compound 0.0316 µM, first compound 0.0316 µM
# [2] = second compound 0.0316 µM, first compound 0.1 µM
# [3] = second compound 0.0316 µM, first compound 0.316 µM
# [4] = second compound 0.0316 µM, first compound 1 µM
# [5] = second compound 0.1 µM, first compound 0.0316 µM
# [6] = second compound 0.1 µM, first compound 0.1 µM
# [7] = second compound 0.1 µM, first compound 0.316 µM
# [8] = second compound 0.1 µM, first compound 1 µM
# [9] = second compound 0.316 µM, first compound 0.0316 µM
# [10] = second compound 0.316 µM, first compound 0.1 µM
# [11] = second compound 0.316 µM, first compound 0.316 µM
# [12] = second compound 0.316 µM, first compound 1 µM
# [13] = second compound 1 µM, first compound 0.0316 µM
# [14] = second compound 1 µM, first compound 0.1 µM
# [15] = second compound 1 µM, first compound 0.316 µM
# [16] = second compound 1 µM, first compound 1 µM
# [17] = second compound 3.16 µM, first compound 0.0316 µM
# [18] = second compound 3.16 µM, first compound 0.1 µM
# [19] = second compound 3.16 µM, first compound 0.316 µM
# [20] = second compound 3.16 µM, first compound 1 µM
# [21] = second compound 10 µM, first compound 0.0316 µM
# [22] = second compound 10 µM, first compound 0.1 µM
# [23] = second compound 10 µM, first compound 0.316 µM
# [24] = second compound 10 µM, first compound 1 µM
# 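Further: spheroids exposed to compound for 7 days before viability read.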
# 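Wherever viability, T/C is given: 100% = DMSO vehicle-treated spheroids.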
smiles,measurement,setting,value
C=CC(=O)N1CCN(c2nc(=O)n(-c3c(C)ccnc3C(C)C)c3nc(-c4c(O)cccc4F)c(F)cc23)C(C)C1 (centres undefined) + CC(Nc1ncnc2nc[nH]c12)c1cc2cccc(Cl)c2c(=O)n1-c1ccccc1,IC50,second compound 0.0316 µM,> 10 µM
same,IC50,second compound 0.1 µM,> 10 µM
same,IC50,second compound 0.316 µM,> 10 µM
same,IC50,second compound 1 µM,> 10 µM
same,IC50,second compound 3.16 µM,9.1 µM
same,IC50,second compound 10 µM,5.29 µM
same,"viability, T/C",[1],95.3%
same,"viability, T/C",[2],94.3%
same,"viability, T/C",[3],94.6%
same,"viability, T/C",[4],94.3%
same,"viability, T/C","second compound 0.0316 µM, first compound 3.16 µM",106%
same,"viability, T/C","second compound 0.0316 µM, first compound 10 µM",58.9%
same,"viability, T/C",[5],104%
same,"viability, T/C",[6],88.7%
same,"viability, T/C",[7],87.2%
same,"viability, T/C",[8],84.1%
same,"viability, T/C","second compound 0.1 µM, first compound 3.16 µM",108%
same,"viability, T/C","second compound 0.1 µM, first compound 10 µM",57.6%
same,"viability, T/C",[9],108%
same,"viability, T/C",[10],103%
same,"viability, T/C",[11],98.9%
same,"viability, T/C",[12],112%
same,"viability, T/C","second compound 0.316 µM, first compound 3.16 µM",105%
same,"viability, T/C","second compound 0.316 µM, first compound 10 µM",61%
same,"viability, T/C",[13],101%
same,"viability, T/C",[14],105%
same,"viability, T/C",[15],106%
same,"viability, T/C",[16],112%
same,"viability, T/C","second compound 1 µM, first compound 3.16 µM",99.4%
same,"viability, T/C","second compound 1 µM, first compound 10 µM",53.4%
same,"viability, T/C",[17],96.3%
same,"viability, T/C",[18],88.3%
same,"viability, T/C",[19],90.6%
same,"viability, T/C",[20],93.1%
same,"viability, T/C","second compound 3.16 µM, first compound 3.16 µM",88.2%
same,"viability, T/C","second compound 3.16 µM, first compound 10 µM",46.6%
same,"viability, T/C",[21],63.9%
same,"viability, T/C",[22],60.9%
same,"viability, T/C",[23],65.6%
same,"viability, T/C",[24],68.6%
same,"viability, T/C","second compound 10 µM, first compound 3.16 µM",64.5%
same,"viability, T/C","second compound 10 µM, first compound 10 µM",32%
CCN1CCN(Cc2ccc(Nc3ncc(F)c(-c4cc(F)c5nc(C)n(C(C)C)c5c4)n3)nc2)CC1 + CC(Nc1ncnc2nc[nH]c12)c1cc2cccc(Cl)c2c(=O)n1-c1ccccc1,IC50,second compound 0.0316 µM,> 1 µM
same,IC50,second compound 0.1 µM,> 1 µM
same,IC50,second compound 0.316 µM,> 1 µM
same,IC50,second compound 1 µM,> 1 µM
same,IC50,second compound 3.16 µM,> 1 µM
same,IC50,second compound 10 µM,> 1 µM
same,"viability, T/C","second compound 0.0316 µM, first compound 0.00316 µM",96.4%
same,"viability, T/C","second compound 0.0316 µM, first compound 0.01 µM",98.5%
same,"viability, T/C",[1],103%
same,"viability, T/C",[2],98%
same,"viability, T/C",[3],122%
same,"viability, T/C",[4],117%
same,"viability, T/C","second compound 0.1 µM, first compound 0.00316 µM",99%
same,"viability, T/C","second compound 0.1 µM, first compound 0.01 µM",95.5%
same,"viability, T/C",[5],99.8%
same,"viability, T/C",[6],110%
same,"viability, T/C",[7],113%
same,"viability, T/C",[8],118%
same,"viability, T/C","second compound 0.316 µM, first compound 0.00316 µM",95.4%
same,"viability, T/C","second compound 0.316 µM, first compound 0.01 µM",103%
same,"viability, T/C",[9],103%
same,"viability, T/C",[10],105%
same,"viability, T/C",[11],111%
same,"viability, T/C",[12],116%
same,"viability, T/C","second compound 1 µM, first compound 0.00316 µM",92.7%
same,"viability, T/C","second compound 1 µM, first compound 0.01 µM",98.4%
same,"viability, T/C",[13],97.5%
same,"viability, T/C",[14],108%
same,"viability, T/C",[15],114%
same,"viability, T/C",[16],114%
same,"viability, T/C","second compound 3.16 µM, first compound 0.00316 µM",95.5%
same,"viability, T/C","second compound 3.16 µM, first compound 0.01 µM",94.8%
same,"viability, T/C",[17],72.9%
same,"viability, T/C",[18],98.6%
same,"viability, T/C",[19],104%
same,"viability, T/C",[20],101%
same,"viability, T/C","second compound 10 µM, first compound 0.00316 µM",67.5%
same,"viability, T/C","second compound 10 µM, first compound 0.01 µM",61%
same,"viability, T/C",[21],69.5%
same,"viability, T/C",[22],72.5%
same,"viability, T/C",[23],80.8%
same,"viability, T/C",[24],84.3%
